14 compounds from US10709718B2, “Inhibitors of diacylglycerol O-acyltransferase 1 (DGAT-1) and uses thereof” (Metabasis Therapeutics, Inc., priority 2009, dated 2020) can be followed below.

Read-outs that look alike come from different tables or passages of the source.

In one data set the target is hDGAT1 (Homo sapiens (Human), UniProt O75907). Description: Inhibition of human microsomal DGAT activity (14C-TAG formation, intestinal microsomes). Type of data set: biochemical. As to the method: The inhibition of DGAT-1 activity can be assessed in intestinal microsome preparations by monitoring the incorporation of radiolabeled fatty acyl-CoA into […].
Sequence of hDGAT1 (O75907 whole entry): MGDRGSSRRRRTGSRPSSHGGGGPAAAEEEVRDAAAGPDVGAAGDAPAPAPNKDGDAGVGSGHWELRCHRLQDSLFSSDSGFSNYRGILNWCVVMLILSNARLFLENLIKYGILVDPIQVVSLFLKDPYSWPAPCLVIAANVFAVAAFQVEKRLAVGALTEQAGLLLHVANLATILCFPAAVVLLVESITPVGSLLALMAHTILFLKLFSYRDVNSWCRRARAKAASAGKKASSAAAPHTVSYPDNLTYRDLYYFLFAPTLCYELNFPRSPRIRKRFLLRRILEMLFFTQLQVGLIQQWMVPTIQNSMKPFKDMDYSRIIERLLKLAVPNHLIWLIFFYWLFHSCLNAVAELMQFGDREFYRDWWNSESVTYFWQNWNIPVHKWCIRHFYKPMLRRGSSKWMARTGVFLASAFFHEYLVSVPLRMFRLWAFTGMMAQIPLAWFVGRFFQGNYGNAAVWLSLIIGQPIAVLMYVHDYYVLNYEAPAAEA
Methods: Commercial microsomal preparations containing 60 ug of protein are incubated in assay buffer [20 uM 1,2-didecanloyl glycerol, 5 uM ^14C decanoyl-CoA, 5 mM MgCl2, 0.4% BSA, 0.1% dimethyl sulfoxide (DMSO), 50 mM HEPES-pH 7.5] in the presence of varying concentrations of inhibitors that are dispensed from 100% DMSO stock solutions. Final assay volumes are 200 uL. Reactions are carried out for 45 minutes in 96-well polystyrene microtiter plates at ambient temperature. Following the ambient temperature incubation, assay mixtures are applied to a 96-well filter plate (Catalog # MSHVN4510, Millipore Inc.; Billerica, Mass.) under vacuum. The filter plate is pre-equilibrated with 100 uL of 70% ethanol followed by 200 uL of assay buffer. […] De novo ^14C-TAG formed in the assay and trapped on the filters is quantified with use of a liquid scintillation counter (Model # LS6500 Beckman Coulter, Inc.; Fullerton, Calif.).

The next data set concerns Sprague Dawley rats. The data set can be described thus: In vivo assay for intestinal triglyceride export (serum TAG after olive oil gavage). On the set-up: species or system rat. The note with it: oral administration, doses in the range of 0.1 to 30 mg/kg. As to the method: The following screen can be used to evaluate the effects of DGAT-1 inhibitors on the export of dietary TAGs from the intestine to the circulation in rodents (male Sprague Dawley rats or C57BL/6 mice).
Methods: Animals (housed 2/cage) are fasted overnight, and dosed (PO) the next day with vehicle (1% Tween-80) or test compound at doses ranging from 0.01 to 30 mg/kg, followed by an oral gavage of olive oil. Blood samples are taken at baseline and at appropriate intervals over the course of 4 hours. Serum TAG levels are determined using the Infinity triglyceride reagent per the manufacturer's instructions.

A short description of data set [1]: Plasma pharmacokinetics and oral bioavailability in rats. The format is in vivo, rat. Conditions: male Sprague Dawley rats, 5 mg/kg, LOQ 0.001 ug/mL. As to the method: Pharmacokinetic studies in rats are useful for the identification of DGAT-1 inhibitors that have low oral bioavailability and show low systemic exposure (i.e. low circulating levels in plasma).
Methods: Groups of male Sprague Dawley rats (200-250 g) (n=3/group) were administered either an IV bolus (1% Tween-80, pH adjusted to 7, vehicle) or an oral gavage (50% PEG-200 in 1% Tween-80 vehicle) of 5 mg/kg of each DGAT-1 inhibitor. Blood (EDTA) was collected by tail nick at 0.5, 1, 2, 4, 8, 10-12 and 24 hr post dose. Following centrifugation of the blood to obtain plasma, the samples were analyzed by LC-MS/MS method for active metabolite. The pharmacokinetic parameters were calculated by noncompartmental analysis of the plasma concentration-time profile of the active metabolite. The oral bioavailability was determined by dividing the dose-normalized plasma AUC value of the active metabolite following oral administration of the DGAT-1 inhibitor by the plasma AUC value of the active metabolite after IV bolus administration.

The mark [2] stands for this setting: microsomal preparation, 14C decanoyl-CoA, 45 min, ambient temperature.

In turn, `CC1(C)Oc2ncnc(N)c2N=C1c1ccc([C@H]2CC[C@H](CP(C)(=O)O)CC2)cc1` [Compound 1] had an IC50 against hDGAT1 (setting [2]) of less than 0.01 µM. In addition, the “AUC0-4h of serum TAGs” value with Sprague Dawley rats is listed as “reduced”. The compound also registered a peak concentration (Cmax) in data set [1] of 9 ng/mL.
On to `CP(=O)(O)[C@@H]1CCC[C@H]1C(=O)c1ccc(-c2ccc(NC(=O)Nc3ccccc3)cc2)cc1` [Compound 2], for which the “AUC0-4h of serum TAGs” value in the data set on Sprague Dawley rats is given as “reduced”. For the same compound, the Cmax in data set [1] came out at 5 ng/mL.
In the case of `CC1(C)Oc2ncnc(N)c2N=C1c1ccc([C@H]2CC[C@H](OP(=O)(O)O)CC2)cc1` [Compound 3], on hDGAT1 (setting [2]), the IC50 was less than 0.01 µM.
Take `CP(=O)(O)C[C@H]1CC[C@H](c2ccc(NC(=O)c3nnc(Nc4ccc(F)c(F)c4)o3)cc2)CC1` [Compound 5]: at hDGAT1 (setting [2]), the IC50 was less than 0.01 µM. In the data set on Sprague Dawley rats, the “AUC0-4h of serum TAGs” value is recorded as “reduced”. Further, in data set [1], the Cmax came to 3 ng/mL.
Compound `CC(C)COP(=O)(O)O[C@H]1CC[C@H](c2ccc(C3=Nc4c(N)ncnc4OC3(C)C)cc2)CC1` [Compound 8] showed an IC50 against hDGAT1 (setting [2]) of less than 0.01 µM.
Regarding `CCOP(=O)(O)OC1CCC(c2ccc(C3=Nc4c(N)ncnc4OC3(C)C)cc2)CC1` (stereo not shown) [Compound 9], the half-inhibitory concentration (IC50) at hDGAT1 was less than 0.01 µM.
The compound `CC1(C)Oc2ncnc(N)c2N=C1c1ccc(C2CCC(OP(=O)(O)OC3CCCC3)CC2)cc1` (stereo not shown) [Compound 10] displayed a half-inhibitory concentration (IC50) on hDGAT1 (setting [2]) of less than 0.01 µM.
`CC1(C)Oc2ncnc(N)c2N=C1c1ccc(C2CCC(OP(=O)(O)Cc3ccccc3)CC2)cc1` (stereo not shown) [Compound 11]: the IC50 at hDGAT1 (setting [2]) was less than 0.01 µM.
Still for that read-out and setting: the same measure for `CC1(C)Oc2ncnc(N)c2N=C1c1ccc([C@H]2CC[C@H](OP(=O)(O)c3ccccc3)CC2)cc1` [Compound 14]: less than 0.01 µM; for `CC1(C)Oc2ncnc(N)c2N=C1c1ccc([C@H]2CC[C@H](OP(=O)(O)Cc3ccc(C(=O)O)cc3)CC2)cc1` [Compound 17]: less than 0.01 µM.
`CC1(C)Oc2ncnc(N)c2N=C1c1ccc([C@H]2CC[C@H](OP(=O)(O)c3cccs3)CC2)cc1` [Compound 19] came in with an IC50 on hDGAT1 (setting [2]) of less than 0.01 µM.
On the same count and under the same terms, the same measure for `CC1(C)Oc2ncnc(N)c2N=C1c1ccc([C@H]2CC[C@H](OP(=O)(O)c3ccsc3)CC2)cc1` [Compound 20]: less than 0.01 µM; for `CC1(C)Oc2ncnc(N)c2N=C1c1ccc([C@H]2CC[C@H](CP(=O)(O)c3ccccc3)CC2)cc1` [Compound 21]: less than 0.01 µM.
Still for that read-out and setting: the same measure for `CC1(C)Oc2ncnc(N)c2N=C1c1ccc([C@H]2CC[C@H](CP(=O)(O)C3CC3)CC2)cc1` [Compound 23]: less than 0.01 µM.

Usually IC50 stands for the point on the concentration scale where inhibition reaches its midpoint. The low end stands for inhibition by little substance, the high end for a need for much substance. Usually Cmax stands for the highest concentration seen after dosing.
